What was measured:
Assay type in all cases: functional
Saccharomyces cerevisiae [1] = test: (§1) MMV: Growth assays were conducted using the prototrophic S. cerevisiae strain JHY222. Each MMV compound (0.1 mM) was tested in rich media containing dextrose as a carbon source (Yeast Extract, Peptone, Dextrose; YPD). The growth rate in the presence of each MMV compound was calculated as follows: (i) the first 10 OD readings were averaged and subtracted from all OD readings of the corresponding curve to set the baseline of the growth curve to zero, and (ii) the area under the curve (AUC) was then calculated as the sum of all OD readings. […] A relative growth value was calculated as follows: AUC(DRUG) - AUC(DMSO)/AUC(DMSO); where AUC(DMSO) represents growth measured in a DMSO control well that was on the same microtiter plate of the drug-treated culture.
Saccharomyces cerevisiae [2] = test: as §1, with “minimal” for “rich”, “Nitrogen Base,” for “Extract, Peptone,”, “YNBD).” for “YPD).”
Saccharomyces cerevisiae [3] = test: as §1, with “minimal” for “rich”, “ethanol and glycerol” for “dextrose”, “as” for “as a”, “sources” for “source”, “Nitrogen Base, Ethanol, Glycerol; YNBEG).” for “Extract, Peptone, Dextrose; YPD).”

| Structure (SMILES) | Relative Growth (Saccharomyces cerevisiae [1]) | Relative Growth (Saccharomyces cerevisiae [2]) | Relative Growth (Saccharomyces cerevisiae [3]) |
| --- | --- | --- | --- |
| COc1cccc(Cn2c(Oc3ccccc3)nc3c2c(=O)n(C)c(=O)n3C)c1 | -0.0536 | -0.1115 | -0.4904 |
| CCn1nc(-c2ccc(C(=O)OC)cc2)nc2c(=O)n(C)c(=O)nc1-2 | 0.0103 | 0.0968 | 0.1078 |
| Cc1cc(NC(=O)c2cccc(C(F)(F)F)c2)n(-c2nc(-c3ccc4c(c3)OCO4)cs2)n1 | -0.007 | -0.0865 | -0.0763 |
| CN1CCN(c2ncnc3c2[nH]c2ccc(Cl)cc23)CC1 | 0.0011 | 0.0494 | 0.0216 |
| CC1(c2ccccc2)Nc2ccccc2-c2nc3ccccc3n21 (configuration not stated) | -0.9988 | -0.2999 | -0.5975 |
| COc1cccc(C2(C)Nc3ccccc3-c3nc4ccccc4n32)c1 (configuration not stated) | 0.098 | -0.0211 | -0.0556 |
| CC(C)CNC(=O)c1c(N)n(CCc2ccccc2F)c2nc3ccccc3nc12 | 0.0072 | 0.1192 | -0.2111 |
| Cc1cccc(-n2ncc3c(O)nc(-n4nc(C)cc4NC(=O)c4cc5ccccc5o4)nc32)c1 | -0.0284 | -0.2202 | -0.0822 |
| COc1cccc(O)c1CN1CCC2(CCCN(Cc3ccc(F)cc3)C2)C1 (configuration not stated) | 0.0333 | 0.0312 | 0.0078 |
| COc1cccc(Nc2nc(NCCO)c3ccccc3n2)c1.Cl | 0.0163 | -0.0288 | -0.0151 |
| O=C(NC1CCN(Cc2ccccc2)CC1)c1cc(-c2ccncc2)nc2ccc(Cl)cc12 | -0.0217 | 0.1716 | -0.2602 |
| CN(C)CCCNCc1ccc(-c2ccc(F)c(Cl)c2)o1.Cl | -0.0396 | 0.0576 | 0.0645 |
| O=C(NC(c1ccccc1)c1ccc2cccnc2c1O)c1ccccc1 (configuration not stated) | 0.0169 | -0.0745 | -0.2626 |
| CCC(=O)Nc1nnc(Cc2ccc(OC)c(OC)c2)s1 | -0.0143 | -0.019 | -0.1225 |
| CC(=O)Nc1nnc(SCc2c(C)cc(C(C)(C)C)cc2C)s1 | 0.0168 | 0.0621 | 0.0163 |
| O=C(Nc1ccc(CN2CCOCC2)cc1)c1ccc(-c2cc(Cl)ccc2Cl)o1 | 0.0021 | 0.0214 | -0.173 |
| Oc1ccc(Cl)cc1CNc1nc2ccccc2[nH]1 | -0.0141 | -0.0661 | -0.0134 |
| COc1cccc(C(=O)Nc2ccc(-c3nc4ccccc4[nH]3)cc2)c1 | -0.0256 | 0.0184 | 0.0109 |
| COCCn1c(C)nc2ccccc2c1=O | -0.0038 | 0.0485 | -0.2443 |
| O=C(Nc1cccc(-c2nc3ccccc3[nH]2)c1)c1cccc(NC(=O)c2ccco2)c1 | -0.1741 | -0.0641 | -0.4658 |
| O=C(NC1CCN(Cc2ccccc2)CC1)c1cc(-c2cccnc2)nc2ccc(Cl)cc12 | -0.0203 | 0.0617 | 0.017 |
| COc1nc(Nc2ccc(C(C)C)cc2)nc(OC)n1 | -0.007 | 0.0529 | 0.0254 |

| Structure (SMILES) | Relative Growth (Saccharomyces cerevisiae [1]) | Relative Growth (Saccharomyces cerevisiae [2]) | Relative Growth (Saccharomyces cerevisiae [3]) |
| --- | --- | --- | --- |
| CCN(CC)CCNc1ncnc2c1[nH]c1ccc(Br)cc12 | -0.0425 | 0.101 | 0.0355 |
| CCOc1cccc(C(=O)Nc2ccc(-c3nc4ccccc4[nH]3)cc2)c1 | -0.0469 | 0.0858 | 0.032 |
| Cc1cc(NC(=O)c2ccc(-c3ccccc3)cc2)no1 | -0.0826 | 0.0468 | 0.0052 |
| O=C(Nc1ccc(N2CCN(Cc3ccccc3)CC2)cc1)c1cccs1.O=C(O)C(F)(F)F | -0.129 | -0.0637 | -0.0052 |
| O=C(Nc1ccc(N2CCCCC2)c(Cl)c1)c1ccc(Br)o1 | -0.0318 | -0.1788 | -0.1511 |
| O=C1CC(O)(C(F)(F)C(F)(F)F)Oc2ccccc21 (configuration not stated) | -0.0644 | -0.042 | -0.6809 |
| O=C(Nc1cccc(C(F)(F)F)c1)c1cc(Cl)ccc1O | -0.651 | -1.0097 | -1.011 |
| CC1CC(C)CN(C(=O)c2ccc(Cl)cc2Cl)C1 (configuration not stated) | 0.0159 | -0.0098 | -0.0083 |
| OC(CNC1CCCC1)Cn1c2ccccc2c2ccccc21 (configuration not stated) | -0.0524 | -0.142 | -0.0741 |
| Cc1ccc(NC(=O)Nc2cccc(Cl)c2)cc1F | -0.0033 | 0.0155 | 0.0189 |
| CCOc1ccc(/C=C/c2nc(=O)c3ccccc3o2)cc1 | 0.0045 | 0.0067 | 0.0498 |
| Clc1ccc2[nH]c3c(NCCCN4CCOCC4)ncnc3c2c1 | 0.0234 | -0.0328 | -0.0516 |
| Oc1c(CN2CCN(c3ccccc3F)CC2)cc(Br)c2cccnc12 | -0.0397 | 0.0189 | 0.0379 |
| CCCCc1c(C)nc2c(OC)cccc2c1O | -0.0392 | -0.0292 | 0.0348 |
| CCOC(=O)C1CCN(C(=O)CN2C(=O)c3ccccc3C2c2c[nH]c3ccccc23)CC1 (configuration not stated) | -1.0024 | -0.2514 | -0.5143 |
| CCCN(CCC)CCCNC(=O)c1cc2c(-c3ccc(OC)c(OC)c3)nn(C)c2s1 | -0.0057 | -0.0982 | -0.061 |
| O=c1c2c([nH]c3ccccc13)CCCC2 | -0.0433 | -0.018 | -0.326 |
| CCCCOc1ccc(C(=O)Nc2cc(C)on2)cc1 | -0.0346 | -0.0653 | -0.1988 |
| CC1CCCCN1CCCNC(=O)c1ccc2c(c1)sc1nc(-c3ccc(F)cc3)cn12 (configuration not stated) | 0.083 | 0.1056 | -0.161 |
| Br.CCN(CC)S(=O)(=O)c1ccc(-c2csc(Nc3ccc(C)c(C)c3)n2)cc1 | -0.1037 | 0.0785 | -0.6715 |
| Cc1c(C)n(CC(O)CNC2CCCCC2C)c2ccccc12 (configuration not stated) | -0.0794 | -0.0308 | -0.2246 |
| CCCCN(CCCC)S(=O)(=O)c1ccc(NC(=O)c2ccco2)cc1 | -0.9715 | -0.9663 | -0.9939 |
